Measurements as given in patent US11814372B2, “Agonists of EPHA and their uses” (CASE WESTERN RESERVE UNIVERSITY, priority 2017, dated 2023).
Entries after “also recorded” stand apart in the source; their conditions may differ.

Key:
EphA4 = target: T1, EphA4 (Homo sapiens, UniProt P54764); assay: Eph receptor activation in HEK 293 cells overexpressing EphA4; format: cell-based; conditions: HEK 293 cells overexpressing EphA4, 60 minutes
T1 construct: expressed in transfected cells; host or cells: HEK 293
T1 sequence (P54764 20-986, species assumed): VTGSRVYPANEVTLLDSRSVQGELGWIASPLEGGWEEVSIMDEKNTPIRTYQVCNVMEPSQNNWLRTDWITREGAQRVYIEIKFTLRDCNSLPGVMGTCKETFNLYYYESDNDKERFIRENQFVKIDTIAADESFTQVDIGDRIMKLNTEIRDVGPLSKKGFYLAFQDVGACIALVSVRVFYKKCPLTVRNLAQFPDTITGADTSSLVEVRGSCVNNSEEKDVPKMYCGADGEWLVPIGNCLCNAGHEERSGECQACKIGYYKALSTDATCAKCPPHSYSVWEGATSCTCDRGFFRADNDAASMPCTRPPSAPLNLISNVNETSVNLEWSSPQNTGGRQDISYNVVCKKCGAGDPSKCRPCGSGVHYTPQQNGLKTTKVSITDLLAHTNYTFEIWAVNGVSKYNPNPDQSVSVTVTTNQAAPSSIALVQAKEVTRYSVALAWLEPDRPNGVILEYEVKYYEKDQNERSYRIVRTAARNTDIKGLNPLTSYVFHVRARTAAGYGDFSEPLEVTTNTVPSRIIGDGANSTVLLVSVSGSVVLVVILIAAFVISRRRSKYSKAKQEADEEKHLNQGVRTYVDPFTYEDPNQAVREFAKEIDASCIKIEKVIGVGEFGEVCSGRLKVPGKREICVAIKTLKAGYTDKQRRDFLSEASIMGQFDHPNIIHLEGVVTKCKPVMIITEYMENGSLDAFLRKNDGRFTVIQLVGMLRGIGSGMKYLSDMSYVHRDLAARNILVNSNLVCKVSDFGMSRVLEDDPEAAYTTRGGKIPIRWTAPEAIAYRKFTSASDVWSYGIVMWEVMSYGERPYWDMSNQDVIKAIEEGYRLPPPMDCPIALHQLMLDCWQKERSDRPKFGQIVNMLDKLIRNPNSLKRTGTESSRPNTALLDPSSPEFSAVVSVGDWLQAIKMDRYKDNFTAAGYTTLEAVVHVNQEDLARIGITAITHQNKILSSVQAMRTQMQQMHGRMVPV
Description: Cells were plated in 24-well dishes at a density of 100,000 cells/well and grown for 24 hours prior to stimulation with appropriate compounds and ephrins for the given amounts of time. Compounds were prepared in DMSO at 500 times the final concentrations and 0.2% DMSO was used as vehicle control. Following treatment, cells were lysed directly in SDS Gel Loading Buffer and immunoblotted as described previously. […] For this purpose, HEK 293 cell lines overexpressing EphA1, EphA2, EphA3, EphA4, and EphB3 kinases were utilized.

ERK and Akt = ERK and Akt inhibition in LK133A-Vec and LK133A-A2 liver epithelial cells (immunoblot); format: cell-based, mice
Description: Cells were plated in 24-well dishes at a density of 100,000 cells/well and grown for 24 hours prior to stimulation with appropriate compounds and ephrins for the given amounts of time. Compounds were prepared in DMSO at 500 times the final concentrations and 0.2% DMSO was used as vehicle control. Following treatment, cells were lysed directly in SDS Gel Loading Buffer and immunoblotted as described previously. Immunoprecipitation and immunofluorescence staining was performed as described. For immunoprecipitation, 300,000 cells/well were plated in 6-well dishes and lysed in modified RIPA Buffer (20 mM Tris-HCl pH 7.4, 20 mM NaF, 150 mM NaCl, 10% glycerol, 0.1% SDS, 0.5% DCA, 2 mM EDTA, 1% Triton X-100) following treatment. Either […] of ephrin-A1-Fc, or […] of EphA2 mouse monoclonal antibody (Clone D7, Millipore) were used, and mouse IgG was used as a negative control for EphA2 IP.
To address this question, we utilized an immortalized liver epithelial cell line, LK133A, isolated from a hepatoma induced by DEN in EphA2 knockout mice. Retroviral vector was used to restore EphA2 expression in these cells (LK133A-A2), and cells transduced with an empty vector were used as control (LK133AVec).

PC3-DAB2IP KD cells = assay: In vivo metastasis assay, orthotopic PC3-DAB2IP KD prostate xenograft
Description: PC-3 cells (from ATCC) engineered to express both GFP and DAB2IP shRNA were characterized previously. Cells were suspended in serum free medium and 2,000 cells injected directly into the prostate glands of 7 week old NCr athymic nu/nu mice. Three days after injection, mice were divided into two groups, one receiving vehicle alone (5% DMSO/10% Cremophor/PBS) and another 50 mg/kg doxazosin via intraperitoneal injection daily for 10 days. Mice were sacrificed 14 days later and intact primary tumors were imaged under a UV light box with a Digital camera. Lungs were dissected into separate lobes and GFP-expressing metastases were imaged using an inverted fluorescent microscope (Leica). Metastases were enumerated in the two largest lung lobes and placed into size categories based upon their diameters, measured in number of cells (1-10 cells). Total metastatic burden was calculated in each mouse using the following equation: [burden=Σ (# of foci×focus diameter)].
Historically, studies of prostate cancer metastasis in the preclinical setting have been hampered by the lack of human cell lines that can produce significant metastasis in a reproducible manner. […] We took advantage of this newly established model system to test how doxazosin can affect metastasis of prostate cancer. To this end, PC3-DAB2IP KD cells were injected orthotopically into the prostate glands of nude mice. Three days later, recipient mice were subject to systemic treatment by daily i.p. injection of either vehicle control, or 50 mg/kg doxazosin for 10 days. Since these cells also expressed green fluorescent protein (GFP), freshly dissected primary tumors could be readily visualized in a GFP light box (FIG. 7A top panels), and distal metastases to lungs and lymph nodes could be observed and quantified under a fluorescent microscope (FIG. 7A lower panels).
Next, we determined whether doxazosin treatment might impact overall survival. Nude mice orthotopically implanted with the PC3-DAP2IP KD cells were treated for 10 days with either doxazosin, or vehicle control and monitored for survival.

[1] = system: DU145 and PC-3 cell xenografts; conditions: previously shown, independent of α1-adrenoreceptor; cited from earlier work
EphA2 = EphA2 (Homo sapiens, UniProt P29317); assay: EphA2 activation in MDA-231-A2 cells (pEphA/B immunoblot, EphA2 immunoprecipitation); format: cell-based; design: expressed in transfected cells; host or cells: MDA-MB-231 (MDA-231-A2), HEK 293 (HEK 293-A2), A172 (A172-A2), U373 (U373-A2)
Chain of EphA2 (P29317 24-976): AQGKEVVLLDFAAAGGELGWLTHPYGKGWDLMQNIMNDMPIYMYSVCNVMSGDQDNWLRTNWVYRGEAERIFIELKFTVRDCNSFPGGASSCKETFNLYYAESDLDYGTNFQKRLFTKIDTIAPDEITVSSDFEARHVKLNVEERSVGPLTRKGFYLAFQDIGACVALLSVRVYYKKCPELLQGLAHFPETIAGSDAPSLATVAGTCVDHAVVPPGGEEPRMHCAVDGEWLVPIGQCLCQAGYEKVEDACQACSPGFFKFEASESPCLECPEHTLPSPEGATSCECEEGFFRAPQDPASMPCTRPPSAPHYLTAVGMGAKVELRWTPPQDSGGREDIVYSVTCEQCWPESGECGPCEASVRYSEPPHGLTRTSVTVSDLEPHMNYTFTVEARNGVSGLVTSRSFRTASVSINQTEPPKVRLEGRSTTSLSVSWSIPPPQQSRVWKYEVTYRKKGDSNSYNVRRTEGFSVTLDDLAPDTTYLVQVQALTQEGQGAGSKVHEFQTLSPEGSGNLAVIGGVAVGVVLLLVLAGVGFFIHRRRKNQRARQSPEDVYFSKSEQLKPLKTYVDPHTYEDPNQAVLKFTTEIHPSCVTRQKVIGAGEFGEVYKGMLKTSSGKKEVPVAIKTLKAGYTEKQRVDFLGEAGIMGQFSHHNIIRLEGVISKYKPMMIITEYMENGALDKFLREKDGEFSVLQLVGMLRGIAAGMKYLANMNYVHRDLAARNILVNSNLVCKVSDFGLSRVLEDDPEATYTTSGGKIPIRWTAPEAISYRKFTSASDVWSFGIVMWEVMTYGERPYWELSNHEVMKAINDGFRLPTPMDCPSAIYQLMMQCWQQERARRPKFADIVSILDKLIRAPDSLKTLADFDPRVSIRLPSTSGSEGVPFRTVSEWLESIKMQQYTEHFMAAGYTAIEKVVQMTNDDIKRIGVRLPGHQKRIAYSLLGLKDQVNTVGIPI
Description: Cells were plated in 24-well dishes at a density of 100,000 cells/well and grown for 24 hours prior to stimulation with appropriate compounds and ephrins for the given amounts of time. Compounds were prepared in DMSO at 500 times the final concentrations and 0.2% DMSO was used as vehicle control. Following treatment, cells were lysed directly in SDS Gel Loading Buffer and immunoblotted as described previously. Immunoprecipitation and immunofluorescence staining was performed as described. For immunoprecipitation, 300,000 cells/well were plated in 6-well dishes and lysed in modified RIPA Buffer (20 mM Tris-HCl pH 7.4, 20 mM NaF, 150 mM NaCl, 10% glycerol, 0.1% SDS, 0.5% DCA, 2 mM EDTA, 1% Triton X-100) following treatment. Either […] of ephrin-A1-Fc, or […] of EphA2 mouse monoclonal antibody (Clone D7, Millipore) were used, and mouse IgG was used as a negative control for EphA2 IP. To identify small molecule agonists for EphA2, we took a structure-based in silico screening approach. […] This notion was confirmed recently by determination of the crystal structure of the EphA2/ephrin-A1 complex (FIG. 1B). The size falls in the range of common drugs, making EphA2 LBD a desirable target for drug discovery. Toward this end, we initiated in silico screening to search for small molecules that interact favorably with the ligand-binding pocket of EphA2 derived from molecular modeling before the crystal structure became available. Multiple conformations for each structure were generated with OMEGA (OpenEye) and each conformation was docked individually using DOCK. Our initial screening of over 750,000 compounds identified a number of small molecules that could potentially interact with the ligand-binding pocket. The commercially available top-scoring compounds were screened for their ability to induce EphA2 activation in MDAMB-231 breast cancer cells. Because MDA-MB-231 cells express endogenous EphA2 as well as other Eph receptors, including EphA1, we overexpressed EphA2 in order to minimize the contribution from other Eph receptors in our analysis. […] Total cell lysates were probed with a previously described antibody that recognizes the activated Eph receptors.

[2] = nude mice, 50 mg/kg i.p. daily for 10 days
[3] = MDA-231-A2 cells, single 50 μM dose

COc1cc2nc(N3CCN(C(=O)C4COc5ccccc5O4)CC3)nc(N)c2cc1OC (stereo not drawn) [doxazosin]
EphA4 kinase activation, Eph receptor panel (EphA4): activated both EphA2 and EphA4 kinases
ERK and Akt inhibition after reintroduction of EphA2 expression (ERK and Akt; LK133A-A2 cells): restored ERK and Akt inhibition
inhibition of ERK and Akt activities in the absence of EphA2 (ERK and Akt; LK133A-Vec cells (EphA2 knockout, empty vector)): neither doxazosin nor ephrin-A1-Fc was able to inhibit ERK and Akt activities; also recorded: notable increase in ERK and Akt activation
overall survival (PC3-DAB2IP KD cells; at 27 days after cell implantation, treated for 10 days, vehicle 30%): 70%
behavioral abnormalities (PC3-DAB2IP KD cells; [2]): nor were there any signs of behavioral abnormalities
body weight compared with vehicle control (PC3-DAB2IP KD cells; [2]): no changes in body weight
number of lung metastases compared to vehicle control (PC3-DAB2IP KD cells; [2]): significant reduction in the number of lung metastases
reduction in primary tumor sizes (PC3-DAB2IP KD cells; [2]): the difference was not statistically significant
sizes of lung metastases compared to vehicle-treated mice (PC3-DAB2IP KD cells; [2]): significantly smaller
total metastatic burden (numbers and sizes of metastases) (PC3-DAB2IP KD cells; [2]): even more significantly reduced
tumor cell dissemination to local lymph nodes (PC3-DAB2IP KD cells; [2]): reduced, but not to a significant extent
subcutaneous growth of DU145 and PC-3 cell xenografts [1]: moderately decrease subcutaneous growth
EphA2 activation after phenoxybenzamine pretreatment versus no pretreatment (EphA2; MDA-231-A2 cells pretreated with 1 μM phenoxybenzamine, then 1 hour treatment): No difference in EphA2 activation
EphA2 activation, screening of top-scoring compounds (EphA2; MDA-231-A2 cells, compounds at 50 µM, 30 minutes): activated EphA2 to the greatest extent
EphA2 level after treatment (EphA2; MDA-231-A2 cells, high doses): degradation of EphA2
EphA2 activation, dose-response (EphA2; MDA-231-A2 cells, multiple doses, 30 minutes): dose-dependent manner
earliest time of significant EphA2 activation (EphA2; [3]): 5 min
time of peak EphA2 activation (EphA2; [3]): around 30 min
